Source: patent publication US4024263A, “1,3-Dihydrospiro[isobenzofuran-1,4'-piperidine]s” (American Hoechst Corporation, priority 1975, dated 1977)
Like-named read-outs stand apart in the source and are kept apart here.

Assays:
[1] = tested on: supra maximal electro shock; assay: protection from supra maximal electro shock, anticonvulsant activity (method of Woodbury and Davenport); format: in vivo; details: intraperitoneal dose of about 5 mg/kg of body weight
Experimental: The compounds of the invention are useful as anticonvulsant agents for mammals, as determined by the method of Woodbury, L. A. and Davenport, V. D., in Arch. Int. Pharmacodynam, Vol. 92, (1952) at pages 97-107. For example, 1'-amino-1,3-dihydro-3-phenylspiro[isobenzofuran-1,4'-piperidine]at an intraperitoneal dose of about 5 mg/kg of body weight produced a 50% protection from the effect of a supra maximal electro shock. This datum illustrates the utility of the compounds of the invention for the treatment of convulsion in mammals when administered in amounts ranging from 0.1 to 50 mg/kg of body weight per day.

[2] = tested on: tetrabenzazine-induced depression; assay: inhibition of tetrabenzazine-induced depression (ptosis), antidepressant activity; format: in vivo, mice; details: Mus musculus, ip, read-out: Antidepressant ED50 (50% inhibition of ptosis of tetrabenzazine-induced depression)
Text: (§1) The results are expressed in ED50 's (intraperitoneal dose effecting a 50% inhibition of ptosis of tetrabenzazine-induced depression in mice). The doses are in mg/kg of body weight. […] The toxicity data is expressed in ALD50 's (the acute lethal intraperitoneal dose, mg/kg of body weight, in 50% of the mice tested).

[3] = acute lethal toxicity (ALD50); details: mouse, in vivo, ip; intraperitoneal, groups of four mice; read-out: Toxicity ALD50 (acute lethal dose in 50% of the mice tested)
Text: as §1

[4] = tested on: 2-phenyl-1,4-quinone-induced writhing; assay: 2-phenyl-1,4-quinone-induced writhing assay (analgesia); format: in vivo; details: 50 mg/kg of body weight oral dose, mice
Text: Exptl. Biol. Med., Vol. 45, 729 (1957)].

Structure (SMILES) | protection from the effect of a supra maximal electro shock [1] | ED50 ([2]; intraperitoneal, mice) | LD50 [3] | inhibition of writhing [4] | ED50 [2]
NN1CCC2(CC1)OC(c1ccccc1)c1ccccc12 (stereo not drawn) [Example 2, 1'-amino-1,3-dihydro-3-phenylspiro[isobenzofuran-1,4'-piperidine]] | 50% | 10.3 mg/kg | 100 mg/kg | 53% | –
CC(C)NN1CCC2(CC1)OC(c1ccccc1)c1ccccc12 (stereo not drawn) [Example 3, 1'-(isopropylamino)1,3'-dihydro-3-phenylspiro[isobenzofuran-1,4'-piperidine]] | – | – | – | 27% | –
O=C(ON1CCC2(CC1)OC(c1ccccc1)c1ccccc12)c1ccccc1 (stereo not drawn) [Example 4, 1'-benzoyloxy-1,3-dihydro-3-phenylspiro[isobenzofuran-1,4'-piperidine]] | – | – | – | 54% | –
ON1CCC2(CC1)OC(c1ccccc1)c1ccccc12 (stereo not drawn) [Example 8, 1'-hydroxy-1,3-dihydro-3-phenylspiro[isobenzofuran-1,4'-piperidine]] | – | 1.4 mg/kg | > 562 mg/kg | 53% | –
COc1ccc(C2OC3(CCN(O)CC3)c3ccccc32)cc1 (stereo not drawn) [Example 9, 1'-hydroxy-1,3-dihydro-3-(4-methoxyphenyl)spiro[isobenzofuran-1,4'-piperidine]] | – | 2.6 mg/kg | > 562 mg/kg | – | –
COc1ccc2c(c1)C1(CCN(O)CC1)OC2c1ccccc1 (stereo not drawn) [Example 10, 1'-hydroxy-1,3-dihydro-6-methoxy-3-phenylspiro[isobenzofuran-1,4'-piperidine]] | – | 3.2 mg/kg | > 562 mg/kg | – | –
ON1CCC2(CC1)OC(c1ccc(F)cc1)c1ccccc12 (stereo not drawn) [Example 11, 1'-hydroxy-1,3-dihydro-3-(4-fluorophenyl)spiro[isobenzofuran-1,4'-piperidine]] | – | 4 mg/kg | 316 mg/kg | – | –
C[N+]1([O-])CCC2(CC1)OC(c1ccccc1)c1ccccc12 (stereo not drawn) [Example 12, 1,3-dihydro-1'-methyl-3-phenylspiro[isobenzofuran-1,4'-piperidine]-1'-oxide] | – | – | 280 mg/kg | – | 6.5 mg/kg
[O-][N+]1(Cc2ccccc2)CCC2(CC1)OC(c1ccccc1)c1ccccc12 (stereo not drawn) [Example 13, 1'-benzyl-1,3-dihydro-3-phenylspiro[isobenzofuran-1,4'-piperidine]-1'-oxide] | – | – | – | 48% | –
